Reference: PubChem BioAssay AID2060610 (Molecular Pharmacology Branch, DTP, NCI, 2025)
One block for each compound: values may come before it.

System: 616215-338-R-J1-PDC complex spheroids, viability % test/control
Assay: Anticancer human tumor 616215-338-R-J1-PDC patient-derived colon adenocarcinoma cell line growth inhibition [CLK]
Details: for IC50: curve of first compound; for viability, T/C: stronger effect = lower value
How it was run: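 Multi-cell-type spheroids combined patient-derived tumor cells with HUVEC endothelial cells and human mesenchymal stem cells. Paired agents were dosed in half-log steps down from about clinical Cmax, or from 10 microM where Cmax was unknown.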

[1] = second compound 0.0316 µM, first compound 0.0316 µM
[2] = second compound 0.0316 µM, first compound 0.1 µM
[3] = second compound 0.0316 µM, first compound 0.316 µM
[4] = second compound 0.0316 µM, first compound 1 µM
[5] = second compound 0.0316 µM, first compound 3.16 µM
[6] = second compound 0.0316 µM, first compound 10 µM
[7] = second compound 0.1 µM, first compound 0.0316 µM
[8] = second compound 0.1 µM, first compound 0.1 µM
[9] = second compound 0.1 µM, first compound 0.316 µM
[10] = second compound 0.1 µM, first compound 1 µM
[11] = second compound 0.1 µM, first compound 3.16 µM
[12] = second compound 0.1 µM, first compound 10 µM
[13] = second compound 0.316 µM, first compound 0.0316 µM
[14] = second compound 0.316 µM, first compound 0.1 µM
[15] = second compound 0.316 µM, first compound 0.316 µM
[16] = second compound 0.316 µM, first compound 1 µM
[17] = second compound 0.316 µM, first compound 3.16 µM
[18] = second compound 0.316 µM, first compound 10 µM
[19] = second compound 1 µM, first compound 0.0316 µM
[20] = second compound 1 µM, first compound 0.1 µM
[21] = second compound 1 µM, first compound 0.316 µM
[22] = second compound 1 µM, first compound 1 µM
[23] = second compound 1 µM, first compound 3.16 µM
[24] = second compound 1 µM, first compound 10 µM
[25] = second compound 3.16 µM, first compound 0.0316 µM
[26] = second compound 3.16 µM, first compound 0.1 µM
[27] = second compound 3.16 µM, first compound 0.316 µM
[28] = second compound 3.16 µM, first compound 1 µM
[29] = second compound 3.16 µM, first compound 3.16 µM
[30] = second compound 3.16 µM, first compound 10 µM
[31] = second compound 10 µM, first compound 0.0316 µM
[32] = second compound 10 µM, first compound 0.1 µM
[33] = second compound 10 µM, first compound 0.316 µM
[34] = second compound 10 µM, first compound 1 µM
[35] = second compound 10 µM, first compound 3.16 µM
[36] = second compound 10 µM, first compound 10 µM
[37] = second compound 0.0316 µM, first compound 0.00316 µM
[38] = second compound 0.0316 µM, first compound 0.01 µM
[39] = second compound 0.1 µM, first compound 0.00316 µM
[40] = second compound 0.1 µM, first compound 0.01 µM
[41] = second compound 0.316 µM, first compound 0.00316 µM
[42] = second compound 0.316 µM, first compound 0.01 µM
[43] = second compound 1 µM, first compound 0.00316 µM
[44] = second compound 1 µM, first compound 0.01 µM
[45] = second compound 3.16 µM, first compound 0.00316 µM
[46] = second compound 3.16 µM, first compound 0.01 µM
[47] = second compound 10 µM, first compound 0.00316 µM
[48] = second compound 10 µM, first compound 0.01 µM
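Also: spheroids exposed to agents for 7 days.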
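For viability, T/C in this document: 100% = DMSO vehicle wells.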

SMILES: COc1c(OCCCN2CCOCC2)ccc2c3n(c(=NC(=O)c4cnc(N)nc4)nc12)CCN3 + CN1CCN(c2cc(C(=O)Nc3cc4cc(-c5cnn(C)c5)ccc4cn3)ccn2)CC1
IC50 (second compound 0.0316 µM): 0.0866 µM
IC50 (second compound 0.1 µM): 0.0362 µM
IC50 (second compound 0.316 µM): < 0.00316 µM
IC50 (second compound 1 µM): < 0.00316 µM
IC50 (second compound 3.16 µM): < 0.00316 µM
IC50 (second compound 10 µM): < 0.00316 µM
viability, T/C [37]: 105%
viability, T/C [38]: 115%
viability, T/C [1]: 89.8%
viability, T/C [2]: 44%
viability, T/C [3]: 30.8%
viability, T/C [4]: 21.6%
viability, T/C [39]: 110%
viability, T/C [40]: 94.4%
viability, T/C [7]: 50.1%
viability, T/C [8]: 29.1%
viability, T/C [9]: 19.1%
viability, T/C [10]: 12.3%
viability, T/C [41]: 26.4%
viability, T/C [42]: 25.1%
viability, T/C [13]: 11.8%
viability, T/C [14]: 6.03%
viability, T/C [15]: 4.47%
viability, T/C [16]: 4.01%
viability, T/C [43]: 0.24%
viability, T/C [44]: 1.7%
viability, T/C [19]: 0.49%
viability, T/C [20]: 0.1%
viability, T/C [21]: 0.08%
viability, T/C [22]: 1.24%
viability, T/C [45]: 0.1%
viability, T/C [46]: 2.88%
viability, T/C [25]: 0.11%
viability, T/C [26]: 0.1%
viability, T/C [27]: 1.07%
viability, T/C [28]: 0.15%
viability, T/C [47]: 0.12%
viability, T/C [48]: 0.15%
viability, T/C [31]: 0.98%
viability, T/C [32]: 0.33%
viability, T/C [33]: 0.17%
viability, T/C [34]: 1.41%

SMILES: CC(CO)NC(=O)c1cc(-c2ccc(Cl)cc2)nn(-c2cnn(C)c2)c1=O (stereo not given) + CN1CCN(c2cc(C(=O)Nc3cc4cc(-c5cnn(C)c5)ccc4cn3)ccn2)CC1
IC50 (second compound 0.0316 µM): > 10 µM
IC50 (second compound 0.1 µM): > 10 µM
IC50 (second compound 0.316 µM): < 0.0316 µM
IC50 (second compound 1 µM): < 0.0316 µM
IC50 (second compound 3.16 µM): < 0.0316 µM
IC50 (second compound 10 µM): < 0.0316 µM
viability, T/C [1]: 104%
viability, T/C [2]: 89.5%
viability, T/C [3]: 91.5%
viability, T/C [4]: 91.6%
viability, T/C [5]: 93%
viability, T/C [6]: 100%
viability, T/C [7]: 94.7%
viability, T/C [8]: 108%
viability, T/C [9]: 90.6%
viability, T/C [10]: 93.6%
viability, T/C [11]: 97.3%
viability, T/C [12]: 85.7%
viability, T/C [13]: 31.3%
viability, T/C [14]: 41.5%
viability, T/C [15]: 26.3%
viability, T/C [16]: 27.7%
viability, T/C [17]: 33.1%
viability, T/C [18]: 32.4%
viability, T/C [19]: 0.18%
viability, T/C [20]: 0.19%
viability, T/C [21]: 0.23%
viability, T/C [22]: 0.14%
viability, T/C [23]: 0.57%
viability, T/C [24]: 1.49%
viability, T/C [25]: 0.15%
viability, T/C [26]: 0.42%
viability, T/C [27]: 0.16%
viability, T/C [28]: 1.94%
viability, T/C [29]: 2.32%
viability, T/C [30]: 0.14%
viability, T/C [31]: 1.31%
viability, T/C [32]: 0.25%
viability, T/C [33]: 0.22%
viability, T/C [34]: 0.24%
viability, T/C [35]: 1.28%
viability, T/C [36]: 0.23%

Now from value to compound, other results behind:

IC50 (second compound 0.0316 µM): > 10 µM
IC50 (second compound 0.1 µM): 4.64 µM
IC50 (second compound 0.316 µM): < 0.0316 µM
IC50 (second compound 1 µM): < 0.0316 µM
IC50 (second compound 3.16 µM): < 0.0316 µM
IC50 (second compound 10 µM): < 0.0316 µM
SMILES: COC1C=CCC(C)C(C)S(=O)(=O)NC(=O)c2ccc3c(c2)N(CC2CCC21)CC1(CCCc2cc(Cl)ccc21)CO3 (stereo not given) + CNC(=O)c1ccc(Nc2nc(OC3CCCC3)c3c(-c4ccc5nc(C)oc5c4)c[nH]c3n2)c(OC)c1
viability, T/C [1]: 95.9%
viability, T/C [2]: 95.1%
viability, T/C [3]: 94%
viability, T/C [4]: 86.2%
viability, T/C [5]: 104%
viability, T/C [6]: 52.3%
viability, T/C [7]: 56.5%
viability, T/C [8]: 57%
viability, T/C [9]: 57.6%
viability, T/C [10]: 60.9%
viability, T/C [11]: 59%
viability, T/C [12]: 34%
viability, T/C [13]: 37.2%
viability, T/C [14]: 43.9%
viability, T/C [15]: 33%
viability, T/C [16]: 25.7%
viability, T/C [17]: 19.6%
viability, T/C [18]: 20.4%
viability, T/C [19]: 35.1%
viability, T/C [20]: 39.7%
viability, T/C [21]: 34.3%
viability, T/C [22]: 26.4%
viability, T/C [23]: 21.5%
viability, T/C [24]: 17.1%
viability, T/C [25]: 41.6%
viability, T/C [26]: 41%
viability, T/C [27]: 34.5%
viability, T/C [28]: 27.2%
viability, T/C [29]: 22.8%
viability, T/C [30]: 20.3%
viability, T/C [31]: 40.7%
viability, T/C [32]: 33.7%
viability, T/C [33]: 29.8%
viability, T/C [34]: 26.5%
viability, T/C [35]: 19.6%
viability, T/C [36]: 17.3%

IC50 (second compound 0.0316 µM): > 0.1 µM
IC50 (second compound 0.1 µM): < 0.000316 µM
IC50 (second compound 0.316 µM): < 0.000316 µM
IC50 (second compound 1 µM): < 0.000316 µM
IC50 (second compound 3.16 µM): < 0.000316 µM
IC50 (second compound 10 µM): < 0.000316 µM
SMILES: Cn1ncnc1[C@H]1c2n[nH]c(=O)c3cc(F)cc(c23)N[C@@H]1c1ccc(F)cc1 + CNC(=O)c1ccc(Nc2nc(OC3CCCC3)c3c(-c4ccc5nc(C)oc5c4)c[nH]c3n2)c(OC)c1
viability, T/C (second compound 0.0316 µM, first compound 0.000316 µM): 97.2%
viability, T/C (second compound 0.0316 µM, first compound 0.001 µM): 93.8%
viability, T/C [37]: 102%
viability, T/C [38]: 102%
viability, T/C [1]: 101%
viability, T/C [2]: 108%
viability, T/C (second compound 0.1 µM, first compound 0.000316 µM): 46.1%
viability, T/C (second compound 0.1 µM, first compound 0.001 µM): 46.5%
viability, T/C [39]: 47.9%
viability, T/C [40]: 54.5%
viability, T/C [7]: 59.8%
viability, T/C [8]: 49.6%
viability, T/C (second compound 0.316 µM, first compound 0.000316 µM): 46.7%
viability, T/C (second compound 0.316 µM, first compound 0.001 µM): 45.3%
viability, T/C [41]: 40.5%
viability, T/C [42]: 45.1%
viability, T/C [13]: 37.7%
viability, T/C [14]: 51.3%
viability, T/C (second compound 1 µM, first compound 0.000316 µM): 39.2%
viability, T/C (second compound 1 µM, first compound 0.001 µM): 44.8%
viability, T/C [43]: 41.9%
viability, T/C [44]: 48.1%
viability, T/C [19]: 44.3%
viability, T/C [20]: 56.3%
viability, T/C (second compound 3.16 µM, first compound 0.000316 µM): 42.2%
viability, T/C (second compound 3.16 µM, first compound 0.001 µM): 45.1%
viability, T/C [45]: 45.5%
viability, T/C [46]: 42.9%
viability, T/C [25]: 52%
viability, T/C [26]: 50.9%
viability, T/C (second compound 10 µM, first compound 0.000316 µM): 38.8%
viability, T/C (second compound 10 µM, first compound 0.001 µM): 43.6%
viability, T/C [47]: 50.2%
viability, T/C [48]: 50.1%
viability, T/C [31]: 54.9%
viability, T/C [32]: 47.2%

IC50 (second compound 0.0316 µM): > 10 µM
IC50 (second compound 0.1 µM): 0.416 µM
IC50 (second compound 0.316 µM): < 0.0316 µM
IC50 (second compound 1 µM): < 0.0316 µM
IC50 (second compound 3.16 µM): < 0.0316 µM
IC50 (second compound 10 µM): < 0.0316 µM
SMILES: CC1(C)CCC(CN2CCN(c3ccc(C(=O)NS(=O)(=O)c4ccc(NCC5CCOCC5)c([N+](=O)[O-])c4)c(Oc4cnc5[nH]ccc5c4)c3)CC2)=C(c2ccc(Cl)cc2)C1 + CNC(=O)c1ccc(Nc2nc(OC3CCCC3)c3c(-c4ccc5nc(C)oc5c4)c[nH]c3n2)c(OC)c1
viability, T/C [1]: 101%
viability, T/C [2]: 99.1%
viability, T/C [3]: 92.8%
viability, T/C [4]: 100%
viability, T/C [5]: 80%
viability, T/C [6]: 91.5%
viability, T/C [7]: 55.3%
viability, T/C [8]: 50.6%
viability, T/C [9]: 50.9%
viability, T/C [10]: 42.8%
viability, T/C [11]: 18.5%
viability, T/C [12]: 56.7%
viability, T/C [13]: 46.6%
viability, T/C [14]: 49%
viability, T/C [15]: 45.4%
viability, T/C [16]: 33.9%
viability, T/C [17]: 21.2%
viability, T/C [18]: 45.7%
viability, T/C [19]: 50.9%
viability, T/C [20]: 48.2%
viability, T/C [21]: 46.2%
viability, T/C [22]: 35.9%
viability, T/C [23]: 20.5%
viability, T/C [24]: 48.9%
viability, T/C [25]: 38.8%
viability, T/C [26]: 42.5%
viability, T/C [27]: 44.6%
viability, T/C [28]: 33.3%
viability, T/C [29]: 24.8%
viability, T/C [30]: 50.7%
viability, T/C [31]: 36.3%
viability, T/C [32]: 42%
viability, T/C [33]: 41.7%
viability, T/C [34]: 41%
viability, T/C [35]: 27.2%
viability, T/C [36]: 41.7%
